Results as given in patent US10188629B2, “Prodrug of green tea epigallocatechin-3-gallate (pro-EGCG) for use in the treatment of endometriosis” (The Hong Kong Polytechnic University, priority 2012, dated 2019).

Assays:
Format in all cases: in vivo, mice
[1] = system: microvessels in the endometriotic lesions; experiment: Angiogenesis of endometriotic lesions by Cellvizio, microCT and CD31/αSMA immunostaining; conditions: after 4 weeks; for functional capillary length, density and area in the lesions compared to saline group / total vessel area in the lesions compared to saline group / total vessel length in the lesions compared to saline group / lesion neovascularization: Cellvizio; for functional capillary length, density and area in the lesions compared to saline group / total vessel area in the lesions compared to saline group / total vessel length in the lesions compared to saline group: FITC-Dextran; for lesion neovascularization / vessel volume and density in the lesions compared to saline group: microCT; for lesion neovascularization: CD31 and αSMA staining; for CD31-positively and αSMA-negatively stained new microvessel numbers compared to saline group / CD31-positively and αSMA-positively stained old microvessel numbers compared to saline group: immunostaining; for vessel volume and density in the lesions compared to saline group: Microfil
Experimental: (§1) At the end of intervention, functional angiogenesis of the endometriotic lesions (n=8 per group) was monitored by measuring the flow of fluorescence dye in the new microvessels developed in the implants using a Cellvizio® LAB LSU-488 system with a ProFlex Microprobe S1500 (Mauna Kea Technologies, Paris) as previously described (Xu H, et al. Fertil Steril 2011; 96:1021-8.). A total of 10 mg/ml of FITC-Dextran was injected intravenously into each mouse prior to imaging. Total vessel length (μm) and area (μm^2) and functional capillary length (μm^−1) and area density were measured using Cellvizio® LAB Vessel Detection software, and averaged from 4 perpendicular regions of the lesions in replicates. At the same time, apoptotic cells in the lesions were captured by Cellvizio-LAB 488 with a ProFlex MiniO/100 microprobe using Cellvizio® LAB I/C Viewer software (Mauna Kea Technologies). A total of 10 μl of 10 μM YO-PRO®-1 iodide in DSMO was injected into the lesion area.
After live animal imaging, structural angiogenesis in the endometriotic lesions (n=4 per group) was further examined by detecting the Microfil in the new microvessels developed in the implants using a VivaCT 40 μCT system (Scanco Medical, Switzerland) as previously described (Sun M H, et al. J Orthop Res. 2012; 30:137-43.). The mice were sacrificed by cervical dislocation and where immediately perfused with 4% paraformaldehyde and Microfil MV-120 Blue. Three-dimensional microvessel architecture was constructed, and absolute and relative Microfil-filled microvessel volumes were determined using the built-in software.
Paraffin sections (n=4 per group) were prepared for standard hematoxylin and eosin (H&E) staining, angiogenesis immunostaining and TUNEL staining as previously described (Xu H, et al. Hum Reprod 2009; 24:608-18.). Immunohistochemistry staining of in situ angiogenesis was performed by the immunoperoxidase method using a MACH 3 HRP Polymer Kit (Biocare Medical, Concord), and counterstained using methyl green or blue solution.
Antibodies against mouse CD31 and alpha-smooth muscle actin (αSMA) (Abcam Inc., MA) were used to double fluorescence stain the microvessels developed in the endometriotic lesions, and CD34 (Abeam Inc.) was used to stain the microvessels in the ovaries and uterus. The samples without primary antibodies served as negative controls. The total number of positively stained new and old microvessels in the lesions was counted, respectively. The mean microvessel numbers and sizes were calculated from 5 separated sections from each animal within the treatment group and are presented as numbers per lesion and μm^2 per lesion, respectively.

[2] = system: apoptotic cells in the endometriotic lesions; experiment: Apoptosis in endometriotic lesions by Cellvizio YO-PRO-1 imaging and TUNEL staining; conditions: after 4 weeks
Experimental: as §1
The total number of apoptotic cells was counted and averaged from the 4 perpendicular regions of the lesions in replicates as described above. Both IVIS and Cellvizio imaging procedures were performed under general anesthesia with isoflurane (Baxter, Ill.), and the mice were observed until fully recovered.
TUNEL labeling for in situ apoptotic cells was performed using an ApopTag Peroxidase In Situ Apoptosis Detection Kit (Temecula, Calif.) according to the manufacturer's instructions. The total numbers of TUNEL-positive stained cells were counted. The mean numbers of apoptotic cells were calculated from 5 separated sections from each animal within the treatment group and are presented as numbers per lesion as above. […] Each section was evaluated by both examiners, who were blinded to the experimental groups and results.

[3] = system: vascular endothelial growth factor (VEGF); experiment: VEGF concentrations in plasma and lesions by ELISA
Description: Pharmacokinetics of EGCG and pro-EGCG in the animals were studied by measuring the corresponding EGCG and pro-EGCG concentrations (EGCG in the EGCG group, pro-EGCG in the pro-EGCG group) in plasma during the intervention and also in lesions at the end of intervention. EGCG and pro-EGCG were quantified by analytical methods as previously described (Lam W H, et al. Bioorg Med Chem. 2004; 510:69-93; Chu K O, et al. J Chromat B 2004; 810:187-95; Chu K O, et al. Anal Chim Acta 2004; 510:69-76). Anti-oxidative and anti-angiogenesis capacities of the samples were also studied by measuring oxygen radical absorbance capacity (ORAC) using a modified phycoerythrin fluorescence decay assay as previously described (Wang C C, et al. Clin Chem 2004; 50:952-4), and vascular endothelial growth factor (VEGF) concentrations were measured using a commercial ELISA kit (Uscn Life Science Inc., TX) according to the manufacturer's manual. Blood samples (n=8 per group) were collected from the tail vein once per week, and plasma was prepared by immediate centrifugation. Implants without subcutaneous and muscle layers (n=4 per group) were removed from the abdominal wall, and the endometriotic lesions were frozen. All of the samples were kept in −80° C. prior to analysis.

[4] = system: ovarian follicles, endometrial glands, ovarian and endometrial stroma microvessels; experiment: Reproductive effects on eutopic endometrium and ovaries (H&E, CD34 immunostaining); conditions: H&E staining after 4-week intervention
Experimental: Reproductive effects of EGCG and pro-EGCG on the endometrium and ovaries of each animal were also examined. After the 4-week intervention, the uterine horns and ovaries (n=8 per group) were removed and fixed for histological examination and angiogenesis immunostaining as described above. Endometrial glands, ovarian follicles and vascularization in endometrial and ovarian stroma were assessed.

| Compound | functional capillary length, density and area in the lesions compared to saline group [1] | total vessel area in the lesions compared to saline group [1] | total vessel length in the lesions compared to saline group [1] | lesion neovascularization [1] | CD31-positively and αSMA-negatively stained new microvessel numbers compared to saline group [1] | CD31-positively and αSMA-positively stained old microvessel numbers compared to saline group [1] | vessel volume and density in the lesions compared to saline group [1] | total apoptotic cell numbers in the lesions compared to saline group [2] | VEGF concentrations in endometriotic lesions compared to saline group ([3]; lesions after intervention) | VEGF concentrations in plasma compared to saline group ([3]; plasma during intervention) | effects on ovarian follicles [4] | effects on uterine endometrial glands [4] | all of the microvessel parameters compared with EGCG group ([1]; 50 mg/kg i.p.) | apoptotic cell numbers in the lesions compared with EGCG group [2] | VEGF concentrations in endometriotic lesions compared with EGCG group ([3]; lesions after intervention) | VEGF concentrations in plasma compared with EGCG group ([3]; plasma during intervention) |
| --- | --- | --- | --- | --- | --- | --- | --- | --- | --- | --- | --- | --- | --- | --- | --- | --- |
| O=C(O[C@@H]1Cc2c(O)cc(O)cc2O[C@@H]1c1cc(O)c(O)c(O)c1)c1cc(O)c(O)c(O)c1 [EGCG, (−)-epigallocatechin-3-gallate] | significantly inhibited | significantly inhibited | significantly inhibited | poorly developed | significantly inhibited | significantly inhibited | significantly inhibited | significantly increased | significantly decreased | significantly decreased | not affected | not affected | – | – | – | – |
| CC(=O)Oc1cc(OC(C)=O)c2c(c1)O[C@H](c1cc(OC(C)=O)c(OC(C)=O)c(OC(C)=O)c1)[C@H](OC(=O)c1cc(OC(C)=O)c(OC(C)=O)c(OC(C)=O)c1)C2 [pro-EGCG, (−)-EGCG octaacetate] | significantly inhibited | significantly inhibited | significantly inhibited | poorly developed | significantly inhibited | significantly inhibited | significantly inhibited | significantly increased | significantly decreased | significantly decreased | not affected | not affected | significantly lower than those in the EGCG group | significantly higher than the number in the EGCG group | significantly lower than those in the EGCG group | significantly lower than those in the EGCG group |
